In US12310934B2, “Methods of treatment of spontaneous preterm birth” (The Regents of the University of California, priority 2019, dated 2025):
Entries after “also recorded” stand apart in the source; their conditions may differ.

Key:
[1] = tested on: LPS-induced fetal wastage in pregnant mice; assay: LPS-induced inflammation mouse model of fetal wastage; assay type: in vivo; conditions: 3× drug + LPS-100 compared with LPS-100 alone
Description: FIG. 3A and FIG. 3B depict results from LPS-induced inflammation mouse model of fetal wastage. Circles represent results from independent mouse pregnancies. Error bars represent mean ±SD. Comparisons were made using the Student's two-sided t-test. […] FIG. 3B: The LPS-100 group compared to the P4 positive control group (3×P4+LPS-100) and the lansoprazole treatment group (3×lansoprazole+LPS-100).
Statistical Analysis. Reversal scores were generated for sPTB-drug pairs using a non-parametric, rank-based method based on the Kolgomorov-Smirnov test. Reversal score p-values were obtained by comparing to a distribution of 100,000 random scores and then adjusted via FDR for multiple comparisons. […] To ensure that the significance of the score is specific to the drug in question, for one candidate drug, lansoprazole, we also compared 1,000 random input signatures to the lansoprazole profile. […] For testing the distributions in the mouse model studies, comparisons were made using the 2-tailed Student's t-test and adjusted via FDR for multiple comparisons. A P value less than 0.05 was considered significant.
Inflammation-induced mouse model validation of lansoprazole. Despite having the highest reversal score, cefotaxime shares few protein interactions. Lansoprazole has the next highest reversal score. Moreover, lansoprazole is available over-the-counter, whereas cefotaxime requires a prescription. […]

preterm birth = conditions: pregnant women, literature studies; cited from earlier work

SMILES | number of viable fetuses at E12.5 [1] | number of viable fetuses at E12.5 ([1]; listed as P4) | rate of preterm birth in past studies (preterm birth)
Cc1c(OCC(F)(F)F)ccnc1C[S+]([O-])c1nc2ccccc2[nH]1 (stereo not drawn) [lansoprazole] | significantly effective in recovering the number of viable fetuses; also recorded: significantly (P<0.05) increase the number of viable fetuses | – | –
CC(=O)[C@H]1CC[C@H]2[C@@H]3CCC4=CC(=O)CC[C@]4(C)[C@H]3CC[C@]12C [progesterone] | – | showed some effectiveness at recovering the number of viable fetuses | effective in reducing the rate of sPTB
Nc1nc2ncc(CNc3ccc(C(=O)N[C@@H](CCC(=O)O)C(=O)O)cc3)nc2c(=O)[nH]1 [folic acid] | – | – | possible reduction of preterm birth
Clc1ccccc1C(c1ccccc1)(c1ccccc1)n1ccnc1 [clotrimazole] | – | – | significant reduction in the rate of PTB
CN(C)C(=N)N=C(N)N [metformin] | – | – | reduce the rate of PTB compared with placebo
